# Results reported in publication PMC4197335, “Cancer-Selective Targeting of the NF-κB Survival Pathway with GADD45β/MKK7 Inhibitors” (Cancer Cell, 2014).
# Like-named read-outs stand apart in the source and are kept apart here. Where a SMILES comes first, the peptide text is derived from it. [ ]: non-standard residue; d: D form. The star is where a group is joined. Cbz = O=C(OCc1ccccc1)*
# Key:
# [1] = molecular target: T1, GADD45β/MKK7 complex (Homo sapiens, UniProt O14733); assay: ELISA GADD45β/MKK7 competition assay; assay type: binding; settings: for inhibition at 0.042 µM / % inhibition (ELISA): peptide at 42 nM
# T1 construct: Full-length human (h)MKK7 was expressed as a protein fused to an N-terminal GST tag (GST-MKK7); made in house
# T1 sequence (O14733 1-419): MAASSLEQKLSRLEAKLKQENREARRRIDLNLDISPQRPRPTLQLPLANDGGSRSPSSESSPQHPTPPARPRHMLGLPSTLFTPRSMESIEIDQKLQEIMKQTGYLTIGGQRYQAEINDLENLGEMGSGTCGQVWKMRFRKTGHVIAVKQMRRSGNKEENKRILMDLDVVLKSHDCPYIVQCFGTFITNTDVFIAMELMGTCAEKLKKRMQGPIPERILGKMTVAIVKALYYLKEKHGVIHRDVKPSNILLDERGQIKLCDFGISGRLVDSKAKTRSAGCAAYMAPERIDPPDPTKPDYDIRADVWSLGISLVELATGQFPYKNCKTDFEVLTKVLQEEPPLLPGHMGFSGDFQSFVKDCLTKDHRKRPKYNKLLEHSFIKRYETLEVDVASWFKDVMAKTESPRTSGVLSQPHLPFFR
# Text: Additional details are provided in Supplemental Experimental Procedures.
# (1:1,000) and the HRP chromogenic substrate, o -phenylenediamine (OPD). GST -coated wells wer e […]
# The ELISA competition screen used f or the isolation of antagonists of the GADD45β /MKK7 […]
# The library deconvolution strategy used for this screen was described previously […]
# General information about this type of screens can be found elsewhere […]
# Values were expressed as the percentage of inhibition of His6-hGADD45β binding to GST-hMKK7 relative to the binding measured in the absence of […]
# Dose-response, ELISA GADD45β /MKK7 competition assays were carried out under similar […]
# As part of the SAR analysis and lead optimization process, where appropriate, competitors were tested at a concentration up to 100 nM. In order to determine their stability in biolog ical f luids , peptides were incubated at the concentration of 10 µM in […]
# calculated using at least 7 concentrations of peptide and def ined as the mean concentration of peptide […]
# the absence of competitor. W here indicated, values were expressed as the percentage of inhibition of His 6 -hGADD45β binding to GST-hMKK7 relative to the binding measured in the absence of competitor.
# GST was used as a control in all the experiments. […]
# tetrapeptide used as negative control in some of the ELISA and cellular assays was as f ollows: z -DNC, z-T yr -Asp-His-Gln-NH 2 . […]
# [2] = aqueous solubility; assay type: physicochemical
# [3] = tested on: U266 MM cells; settings: read-out: IC50 (U266 cells); Table S3; day 6; [3H]thymidine incorporation or trypan blue exclusion
# [4] = pharmacokinetics after single intravenous injection
# Protocol: The pharmacokinetic analyses of DTP3 and z-DTP2 were outsourced. Additional details are provided in Supplemental Experimental Procedures. […]
# Pharmacokinetic Anal yses
# In vitro and in vivo pharmacok inetic analyses were outsourced to Cypr ot ex (http://www.c yprotex.com/home/) (Figure 7A, Tables S6). In vitro pharmacok inetic assays were perf ormed according to established, in- house protocols and included: plasma stability (human), thermodynamic solubility (PBS pH 7.4, at 37 °C f or 14 days), microsomal stability (human), plasma protein binding (PPB; mouse and human), and distribution coeff icient (LogD). In vivo pharmacok inetic […]
# analyses were also perf ormed at Cyprotex according to established, in- house protocols. Brief ly, the peptides were dissolved in PBS and administered by single intravenous injection t o CD1 male mice at the dose of 10 mg/kg (25 -30 g of total body weight; n=3 mice per time point per compound) . Blood samples were collected in heparinized tubes at up to 7 tim e points after this injection (i.e. 0.08, 0.25, 0.5, 1, 2, 4 and 8 hr), and the plasma concentrations of the test peptide were determined at each time point by LC-MS/ MS, using a f ive- point standard curve covering a peptide concentration range from 3 to 3,000 ng/mL. Standard curves were prepared using blank plasma matrices and treated in the same manner as the test samples. The main pharmacok inetic parameters determined in these analyses were: terminal half-lif e (t 1/2 ), plasma clearance (CL), volume of distribution (V d ), and area under the plasma concentration versus time curve (AUC) (Figure 7A, Table S6). Values were calculated from the data of the peptide plasma concentration versus time curves using a non-compartmental model analysis, as described elsewhere (Groulx, 2006; Landaw and Di Stef ano 3rd, 1982) . […]
# [5] = Table S4, read-out: IC50s (ELISA)
# [6] = Table S3, peptide at 10 nM, read-out: % inhibition (ELISA)
# [7] = Table S3, read-out: IC50 (ELISA)
# [8] = Table S4, values marked (#), read-out: % inhibition of (ELISA)
# [9] = read-out: % inhibition of (ELISA)
molecule,measurement,setting,value
CC(=O)N[C@@H](Cc1c[nH]c2ccccc12)C(=O)N[C@@H](CC(=O)O)C(=O)N[C@@H](CCCNC(=N)N)C(=O)N[C@@H](Cc1c[nH]c2ccccc12)C(N)=O [Ac-WDRW-NH2] (Ac-WDRW-NH2),inhibition at 0.042 µM,"[1]; Table S2, read-out: % inhibition (ELISA)",93%
same,IC50,[1]; [5],< 42 nM
same,aqueous solubility,[2],low
CC(=O)N[C@H](Cc1ccc(O)cc1)C(=O)N[C@H](CCC(=O)O)C(=O)N[C@H](CCCNC(=N)N)C(=O)N[C@H](Cc1ccccc1)C(=O)N[C@H](CCCCNC(=O)OCc1ccccc1)C(N)=O [Ac-YERFK(εZ)-NH2] (Ac-[dY][dE][dR][dF][dK](Cbz)-NH2),inhibition at 0.01 µM,[1]; [6],6%
same,IC50,[1]; [7],> 10 nM
CC(=O)N[C@H](Cc1ccc(O)cc1)C(=O)N[C@H](CCC(=O)O)C(=O)N[C@H](CCCNC(=N)N)C(=O)N1CCC[C@@H]1C(N)=O [Ac-YERP-NH2] (Ac-[dY][dE][dR][dP]-NH2),inhibition at 0.042 µM,[1]; [8],0%
CC(=O)N[C@H](Cc1ccc(O)cc1)C(=O)N1CCC[C@@H]1C(=O)N[C@H](CCCNC(=N)N)C(=O)N[C@H](Cc1ccccc1)C(N)=O [Ac-YPRF-NH2] (Ac-[dY][dP][dR][dF]-NH2),inhibition at 0.042 µM,[1]; [8],13%
NC(=O)[C@@H](Cc1ccccc1)NC(=O)[C@@H](Cc1c[nH]cn1)NC(=O)[C@@H](CC(=O)O)NC(=O)[C@@H](Cc1ccc(O)cc1)NC(=O)c1ccccc1 [Benzoyl-YDHF-NH2],IC50,[1],> 10 nM
same,inhibition at 0.01 µM,[1]; read-out: % inhibition (ELISA),0%
same,inhibition at 0.01 µM,[1]; [9],1%
same,IC50,[3],> 10000 nM
NC(=O)CC[C@@H](NC(=O)[C@@H](Cc1c[nH]cn1)NC(=O)[C@@H](CC(=O)O)NC(=O)[C@@H](Cc1ccc(O)cc1)NC(=O)c1ccccc1)C(N)=O [Benzoyl-YDHQ-NH2],IC50,[1],> 10 nM
same,inhibition at 0.01 µM,[1]; read-out: % inhibition (ELISA),1%
same,inhibition at 0.01 µM,[1]; [9],0%
same,IC50,[3],> 10000 nM
N=C(N)NCCC[C@@H](NC(=O)[C@@H](CCC(=O)O)NC(=O)[C@@H](Cc1ccc(O)cc1)NC(=O)c1ccccc1)C(=O)N[C@H](Cc1ccccc1)C(N)=O [Benzoyl-YERF-NH2],IC50,[1],> 10 nM
same,inhibition at 0.01 µM,[1]; read-out: % inhibition (ELISA),24%
same,IC50,[3],> 10000 nM
NC(=O)CC[C@@H](NC(=O)[C@@H](Cc1c[nH]cn1)NC(=O)[C@@H](CC(=O)O)NC(=O)[C@@H](Cc1ccc(O)cc1)NC(=O)OCC1c2ccccc2-c2ccccc21)C(N)=O [Fmoc-YDFQ-NH2],inhibition at 0.01 µM,[1]; [6],19%
NC(=O)[C@@H](Cc1ccccc1)NC(=O)[C@@H](Cc1c[nH]cn1)NC(=O)[C@@H](CC(=O)O)NC(=O)[C@@H](Cc1ccc(O)cc1)NC(=O)OCC1c2ccccc2-c2ccccc21 [Fmoc-YDHF-NH2],inhibition at 0.01 µM,[1]; [6],58%
same,IC50,[1]; [7],< 10 nM
N=C(N)NCCC[C@@H](NC(=O)[C@@H](CCC(=O)O)NC(=O)[C@@H](Cc1ccc(O)cc1)NC(=O)OCC1c2ccccc2-c2ccccc21)C(=O)N[C@H](Cc1ccccc1)C(N)=O [Fmoc-YERF-NH2],inhibition at 0.01 µM,[1]; [6],60%
same,IC50,[1]; [7],< 10 nM
NC(=O)[C@@H](Cc1ccccc1)NC(=O)[C@@H](Cc1c[nH]cn1)NC(=O)[C@H](N)Cc1ccc(O)cc1 [H-YHF-NH2],IC50,[1]; [5],0.65 nM
N=C(N)NCCC[C@@H](NC(=O)[C@H](N)Cc1ccc(O)cc1)C(=O)N[C@H](Cc1ccc(O)cc1)C(N)=O [H-YRY-NH2],IC50,[1]; [5],0.75 nM
CCCCCCCCCCCCCC(=O)N[C@H](Cc1ccc(O)cc1)C(=O)N[C@H](CC(=O)O)C(=O)N[C@H](Cc1c[nH]cn1)C(=O)N[C@H](Cc1ccccc1)C(N)=O [Myr-YDHF-NH2],inhibition at 0.01 µM,[1]; [6],26%
same,IC50,[1]; [7],> 10 nM
same,IC50,[3],> 10000 nM
CCCCCCCCCCCCCC(=O)N[C@H](Cc1ccc(O)cc1)C(=O)N[C@H](CC(=O)O)C(=O)N[C@H](Cc1c[nH]cn1)C(=O)N[C@H](CCC(N)=O)C(N)=O [Myr-YDHQ-NH2],inhibition at 0.01 µM,[1]; [6],28%
same,IC50,[1]; [7],> 10 nM
same,IC50,[3],> 10000 nM
CCCCCCCCCCCCCC(=O)N[C@H](Cc1ccc(O)cc1)C(=O)N[C@H](CCC(=O)O)C(=O)N[C@H](CCCNC(=N)N)C(=O)N[C@H](Cc1ccccc1)C(N)=O [Myr-YERF-NH2],inhibition at 0.01 µM,[1]; [6],37%
same,IC50,[1]; [7],> 10 nM
same,IC50,[3],> 10000 nM
"NC(=O)CC[C@@H](NC(=O)[C@@H](Cc1c[nH]cn1)NC(=O)[C@@H](CC(=O)O)NC(=O)[C@@H](Cc1ccc(O)cc1)NC(=O)OCc1ccccc1)C(N)=O [z-DNC, z-YDHQ-NH2] (Cbz-[dY][dD][dH][dQ]-NH2)",inhibition at 0.01 µM,[1]; [6],12%
"NC(=O)[C@@H](Cc1ccccc1)NC(=O)[C@@H](Cc1c[nH]cn1)NC(=O)[C@@H](CC(=O)O)NC(=O)[C@@H](Cc1ccc(O)cc1)NC(=O)OCc1ccccc1 [z-DTP1, z-YDHF-NH2] (Cbz-[dY][dD][dH][dF]-NH2)",inhibition at 0.01 µM,[1]; [6],84%
"N=C(N)NCCC[C@@H](NC(=O)[C@@H](CCC(=O)O)NC(=O)[C@@H](Cc1ccc(O)cc1)NC(=O)OCc1ccccc1)C(=O)N[C@H](Cc1ccccc1)C(N)=O [z-DTP2, z-YERF-NH2] (Cbz-[dY][dE][dR][dF]-NH2)",inhibition at 0.01 µM,[1]; [6],95%
same,predicted dose required to achieve the therapeutic plasma concentration of 1 μM at the steady state,[4]; k0 = k1 x Vd x Cp,3.61 mg/kg/h
same,AUC,"[4]; mouse, in vivo, iv, 10 mg/kg",2060 ± 250 ng·h/mL
same,Vd,"[4]; mouse, in vivo, iv, 10 mg/kg",14.6 ± 2.23 L/kg
same,clearance,"[4]; mouse, in vivo, iv, 10 mg/kg",78.1 ± 11.7 mL/min/kg
same,half-life,"[4]; mouse, in vivo, iv, 10 mg/kg",2.09 ± 0.07 h
COC(=O)C[C@@H](NC(=O)[C@@H](Cc1ccc(O)cc1)NC(=O)OCc1ccccc1)C(=O)N[C@H](Cc1c[nH]cn1)C(=O)N[C@H](Cc1ccccc1)C(N)=O [z-YD(O-methyl)HF-NH2] (Cbz-[dY][dD](OMe)[dH][dF]-NH2),inhibition at 0.01 µM,[1]; [6],84%
same,IC50,[1]; [7],> 10 nM
COC(=O)C[C@@H](NC(=O)[C@@H](Cc1ccc(O)cc1)NC(=O)OCc1ccccc1)C(=O)N[C@H](Cc1c[nH]cn1)C(=O)N[C@H](CCC(N)=O)C(N)=O [z-YD(O-methyl)HQ-NH2] (Cbz-[dY][dD](OMe)[dH][dQ]-NH2),inhibition at 0.01 µM,[1]; [6],3%
same,IC50,[1]; [7],> 10 nM
Ac-WDHW-NH2,% inhibition (ELISA),[1]; Table S2,50%
Ac-WDRF-NH2,% inhibition (ELISA),[1]; Table S2,45%
Ac-WEHF-NH2,% inhibition (ELISA),[1]; Table S2,35%
Ac-YDHW-NH2,% inhibition (ELISA),[1]; Table S2,57%
Ac-YDKF-NH2,% inhibition (ELISA),[1]; Table S2,34%
Ac-YDRF-NH2,% inhibition (ELISA),[1]; Table S2,45%
Ac-YDRW-NH2,% inhibition (ELISA),[1]; Table S2,43%
Ac-YEHF-NH2,% inhibition (ELISA),[1]; Table S2,52%
Ac-YERW-NH2,% inhibition (ELISA),[1]; Table S2,27%
